System: yeast genes (expressed mRNA)
Experiment: DNA chip measurement of expressed mRNA of yeast genes after culture with a toxic chemical substance
Type: cell-based, Saccharomyces cerevisiae S288C
In short: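 Two-hour exposure of growing S. cerevisiae S288C (YPD, 25° C) to a sublethal toxicant preceded RNA isolation. Fluorescent cDNA was hybridized to a whole-genome array; a treated-to-untreated signal ratio of two or more was taken as significant.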

## CCCCC[C@H](O)CC(=O)CCc1ccc(O)c(OC)c1 [(13), Gingerol]
Gene YDL067C (mitochondria-located protein gene), yeast cultured two hours with chemical substance, DNA chip fluorescence ratio to control
  The level of expressed mRNA in the presence of chemical substance/The level of expressed mRNA in the absence of chemical substance, yeast gene YDL067C: 0.6
Gene YDR079W (mitochondria-located protein gene), yeast cultured two hours with chemical substance, DNA chip fluorescence ratio to control
  The level of expressed mRNA in the presence of chemical substance/The level of expressed mRNA in the absence of chemical substance, yeast gene YDR079W: 1.3
Yeast gene YAL018C, cultured two hours with the chemical substance
  level of expressed mRNA in the presence of chemical substance / level in the absence of chemical substance: 1.3
Yeast gene YAR028W, cultured two hours with substance
  The level of expressed mRNA in the presence of chemical substance/The level of expressed mRNA in the absence of chemical substance: 1.4
Yeast gene YAR047C, cultured two hours with the chemical substance
  level of expressed mRNA in the presence of chemical substance / level in the absence of chemical substance: 1.4
Yeast gene YAR064W, cultured two hours with the chemical substance
  level of expressed mRNA in the presence of chemical substance / level in the absence of chemical substance: 1.1
Yeast gene YBL044W, cultured two hours with the chemical substance
  level of expressed mRNA in the presence of chemical substance / level in the absence of chemical substance: 0.7
Yeast gene YBL048W, cultured two hours with substance
  The level of expressed mRNA in the presence of chemical substance/The level of expressed mRNA in the absence of chemical substance: 2.7
Yeast gene YBR012C, cultured two hours with the chemical substance
  level of expressed mRNA in the presence of chemical substance / level in the absence of chemical substance: 2.1
Yeast gene YBR047W, cultured two hours with substance
  The level of expressed mRNA in the presence of chemical substance/The level of expressed mRNA in the absence of chemical substance: 1.7
Yeast gene YBR062C, cultured two hours with substance
  The level of expressed mRNA in the presence of chemical substance/The level of expressed mRNA in the absence of chemical substance: 2.8
Yeast gene YBR066C, cultured two hours with the chemical substance
  level of expressed mRNA in the presence of chemical substance / level in the absence of chemical substance: 0.6
Yeast gene YBR124W, cultured two hours with the chemical substance
  level of expressed mRNA in the presence of chemical substance / level in the absence of chemical substance: 0.9
Yeast gene YBR162C, cultured two hours with the chemical substance
  level of expressed mRNA in the presence of chemical substance / level in the absence of chemical substance: 0.7
Yeast gene YBR185C, mitochondria-located protein gene, cultured two hours with substance
  The level of expressed mRNA in the presence of chemical substance/The level of expressed mRNA in the absence of chemical substance: 1.0
Yeast gene YBR287W, cultured two hours with the chemical substance
  level of expressed mRNA in the presence of chemical substance / level in the absence of chemical substance: 3.4
Yeast gene YCL042W, cultured two hours with the chemical substance
  level of expressed mRNA in the presence of chemical substance / level in the absence of chemical substance: 7.5
Yeast gene YCL056C, cultured two hours with the chemical substance
  level of expressed mRNA in the presence of chemical substance / level in the absence of chemical substance: 1.3
Yeast gene YCR007C, cultured two hours with the chemical substance
  level of expressed mRNA in the presence of chemical substance / level in the absence of chemical substance: 1.5
Yeast gene YCR030C, cultured two hours with the chemical substance
  The level of expressed mRNA in the presence of chemical substance/The level of expressed mRNA in the absence of chemical substance: 1.7
Yeast gene YDL046W, cultured two hours with the chemical substance
  level of expressed mRNA in the presence of chemical substance / level in the absence of chemical substance: 1.5
Yeast gene YDL174C, cultured for two hours with substance
  The level of expressed mRNA in the presence of chemical substance/The level of expressed mRNA in the absence of chemical substance: 5.9
Yeast gene YDR001C, cultured for two hours with substance
  The level of expressed mRNA in the presence of chemical substance/The level of expressed mRNA in the absence of chemical substance: 2.8
Yeast gene YDR090C, cultured two hours with the chemical substance
  level of expressed mRNA in the presence of chemical substance / level in the absence of chemical substance: 0.8
Yeast gene YDR128W, cultured two hours with the chemical substance
  level of expressed mRNA in the presence of chemical substance / level in the absence of chemical substance: 1.1
Yeast gene YDR133C, cultured two hours with the chemical substance
  level of expressed mRNA in the presence of chemical substance / level in the absence of chemical substance: 0.1
Yeast gene YDR214W, cultured two hours with substance
  The level of expressed mRNA in the presence of chemical substance/The level of expressed mRNA in the absence of chemical substance: 5.3
Yeast gene YDR250C, cultured two hours with the chemical substance
  level of expressed mRNA in the presence of chemical substance / level in the absence of chemical substance: 1.2
Yeast gene YDR278C, cultured two hours with the chemical substance
  level of expressed mRNA in the presence of chemical substance / level in the absence of chemical substance: 0.7
Yeast gene YDR281C, cultured two hours with the chemical substance
  level of expressed mRNA in the presence of chemical substance / level in the absence of chemical substance: 0.7
Yeast gene YDR366C, cultured two hours with the chemical substance
  level of expressed mRNA in the presence of chemical substance / level in the absence of chemical substance: 0.8
Yeast gene YDR377W, mitochondria-located protein gene, cultured two hours with substance
  The level of expressed mRNA in the presence of chemical substance/The level of expressed mRNA in the absence of chemical substance: 0.7
Yeast gene YDR486C, cultured two hours with substance
  The level of expressed mRNA in the presence of chemical substance/The level of expressed mRNA in the absence of chemical substance: 1.7
Yeast gene YDR506C
  The level of expressed mRNA in the presence of chemical substance/The level of expressed mRNA in the absence of chemical substance: 0.3
Yeast gene YDR533C, cultured two hours with substance
  The level of expressed mRNA in the presence of chemical substance/The level of expressed mRNA in the absence of chemical substance: 3.0
Yeast gene YEL024W, mitochondria-located protein gene, cultured two hours with substance
  The level of expressed mRNA in the presence of chemical substance/The level of expressed mRNA in the absence of chemical substance: 0.6
Yeast gene YER037W, cultured two hours with substance
  The level of expressed mRNA in the presence of chemical substance/The level of expressed mRNA in the absence of chemical substance: 3.0
Yeast gene YER079W, cultured two hours with substance
  The level of expressed mRNA in the presence of chemical substance/The level of expressed mRNA in the absence of chemical substance: 2.1
Yeast gene YFL014W, DNA repair protein genes, cultured two hours with substance
  The level of expressed mRNA in the presence of chemical substance/The level of expressed mRNA in the absence of chemical substance: 15.2
Yeast gene YFL032W, cultured two hours with substance
  The level of expressed mRNA in the presence of chemical substance/The level of expressed mRNA in the absence of chemical substance: 2.4
Yeast gene YFL044C, cultured two hours with substance
  The level of expressed mRNA in the presence of chemical substance/The level of expressed mRNA in the absence of chemical substance: 4.7
Yeast gene YFR017C, cultured two hours with substance
  The level of expressed mRNA in the presence of chemical substance/The level of expressed mRNA in the absence of chemical substance: 1.7
Yeast gene YFR026C, cultured two hours with the chemical substance
  level of expressed mRNA in the presence of chemical substance / level in the absence of chemical substance: 1.1
Yeast gene YFR044C, cultured two hours with substance
  The level of expressed mRNA in the presence of chemical substance/The level of expressed mRNA in the absence of chemical substance: 3.1
Yeast gene YGL037C, cultured two hours with substance
  The level of expressed mRNA in the presence of chemical substance/The level of expressed mRNA in the absence of chemical substance: 2.3
Yeast gene YGL088W, cultured two hours with the chemical substance
  level of expressed mRNA in the presence of chemical substance / level in the absence of chemical substance: 0.7
Yeast gene YGL187C, mitochondria-located protein gene, cultured two hours with substance
  The level of expressed mRNA in the presence of chemical substance/The level of expressed mRNA in the absence of chemical substance: 0.7
Yeast gene YGL191W, mitochondria-located protein gene, cultured two hours with substance
  The level of expressed mRNA in the presence of chemical substance/The level of expressed mRNA in the absence of chemical substance: 1.1
Yeast gene YGR038W, cultured two hours with the chemical substance
  level of expressed mRNA in the presence of chemical substance / level in the absence of chemical substance: 1.2
Yeast gene YGR043C, cultured for two hours with substance
  The level of expressed mRNA in the presence of chemical substance/The level of expressed mRNA in the absence of chemical substance: 6.9
Yeast gene YGR101W, cultured two hours with substance
  The level of expressed mRNA in the presence of chemical substance/The level of expressed mRNA in the absence of chemical substance: 2.4
Yeast gene YGR110W, cultured two hours with substance
  The level of expressed mRNA in the presence of chemical substance/The level of expressed mRNA in the absence of chemical substance: 3.6
Yeast gene YGR139W, cultured two hours with the chemical substance
  level of expressed mRNA in the presence of chemical substance / level in the absence of chemical substance: 0.4
Yeast gene YGR146C, cultured two hours with substance
  The level of expressed mRNA in the presence of chemical substance/The level of expressed mRNA in the absence of chemical substance: 1.7
Yeast gene YGR154C, cultured two hours with substance
  The level of expressed mRNA in the presence of chemical substance/The level of expressed mRNA in the absence of chemical substance: 2.5
Yeast gene YGR161C, cultured two hours with substance
  The level of expressed mRNA in the presence of chemical substance/The level of expressed mRNA in the absence of chemical substance: 2.8
Yeast gene YGR231C, DNA repair protein genes, cultured two hours with substance
  The level of expressed mRNA in the presence of chemical substance/The level of expressed mRNA in the absence of chemical substance: 3.9
Yeast gene YGR243W, cultured two hours with the chemical substance
  level of expressed mRNA in the presence of chemical substance / level in the absence of chemical substance: 1.1
Yeast gene YGR256W, cultured for two hours with substance
  The level of expressed mRNA in the presence of chemical substance/The level of expressed mRNA in the absence of chemical substance: 3.9
Yeast gene YGR268C, cultured two hours with substance
  The level of expressed mRNA in the presence of chemical substance/The level of expressed mRNA in the absence of chemical substance: 2.8
Yeast gene YGR293C, cultured two hours with the chemical substance
  level of expressed mRNA in the presence of chemical substance / level in the absence of chemical substance: 0.7
Yeast gene YHL006C, cultured two hours with the chemical substance
  level of expressed mRNA in the presence of chemical substance / level in the absence of chemical substance: 1.1
Yeast gene YHR095W, cultured two hours with the chemical substance
  level of expressed mRNA in the presence of chemical substance / level in the absence of chemical substance: 0.7
Yeast gene YHR105W, cultured two hours with the chemical substance
  level of expressed mRNA in the presence of chemical substance / level in the absence of chemical substance: 1.4
Yeast gene YHR181W, cultured two hours with the chemical substance
  level of expressed mRNA in the presence of chemical substance / level in the absence of chemical substance: 0.7
Yeast gene YHR199C, cultured two hours with substance
  The level of expressed mRNA in the presence of chemical substance/The level of expressed mRNA in the absence of chemical substance: 2.1
Yeast gene YIL087C, cultured two hours with substance
  The level of expressed mRNA in the presence of chemical substance/The level of expressed mRNA in the absence of chemical substance: 2.4
Yeast gene YIL122W, cultured two hours with the chemical substance
  The level of expressed mRNA in the presence of chemical substance/The level of expressed mRNA in the absence of chemical substance: 0.7
Yeast gene YIL127C, cultured two hours with the chemical substance
  level of expressed mRNA in the presence of chemical substance / level in the absence of chemical substance: 0.4
Yeast gene YJL017W, cultured two hours with the chemical substance
  level of expressed mRNA in the presence of chemical substance / level in the absence of chemical substance: 1.5
Yeast gene YJL037W, cultured two hours with the chemical substance
  level of expressed mRNA in the presence of chemical substance / level in the absence of chemical substance: 1.1
Yeast gene YJL057C, cultured two hours with substance
  The level of expressed mRNA in the presence of chemical substance/The level of expressed mRNA in the absence of chemical substance: 2.5
Yeast gene YJL082W, cultured two hours with substance
  The level of expressed mRNA in the presence of chemical substance/The level of expressed mRNA in the absence of chemical substance: 2.1
Yeast gene YJL097W, cultured two hours with the chemical substance
  level of expressed mRNA in the presence of chemical substance / level in the absence of chemical substance: 0.7
Yeast gene YJL144W, cultured two hours with substance
  The level of expressed mRNA in the presence of chemical substance/The level of expressed mRNA in the absence of chemical substance: 3.9
Yeast gene YJL151C, cultured two hours with substance
  The level of expressed mRNA in the presence of chemical substance/The level of expressed mRNA in the absence of chemical substance: 2.4
Yeast gene YJL161W, cultured two hours with substance
  The level of expressed mRNA in the presence of chemical substance/The level of expressed mRNA in the absence of chemical substance: 2.5
Yeast gene YJR030C, cultured two hours with the chemical substance
  level of expressed mRNA in the presence of chemical substance / level in the absence of chemical substance: 0.7
Yeast gene YJR046W, DNA repair protein genes, cultured two hours with substance
  The level of expressed mRNA in the presence of chemical substance/The level of expressed mRNA in the absence of chemical substance: 3.0
Yeast gene YJR074W, cultured two hours with substance
  The level of expressed mRNA in the presence of chemical substance/The level of expressed mRNA in the absence of chemical substance: 2.8
Yeast gene YJR121W, mitochondria-located protein gene, cultured two hours with substance
  The level of expressed mRNA in the presence of chemical substance/The level of expressed mRNA in the absence of chemical substance: 1.0
Yeast gene YJR123W
  The level of expressed mRNA in the presence of chemical substance/The level of expressed mRNA in the absence of chemical substance: 0.1
Yeast gene YKL051W, cultured two hours with the chemical substance
  level of expressed mRNA in the presence of chemical substance / level in the absence of chemical substance: 1.2

— US20100041089A1, “IMPROVED METHOD FOR DETECTING CHEMICAL […]” (priority 2006, published 2010)
